Results reported in patent US20240270762A1, “PENICILLIN-BINDING PROTEIN INHIBITORS” (priority 2021, published 2024).
Converted amounts (≈) assume the structure as drawn.

Key:
[1] = target: T1, PBP3 from Escherichia coli (K-12) (Escherichia coli, UniProt P0AD68); test: Bocillin-FL fluorescence polarization competition binding, E. coli PBP3
T1 construct: made in house
Procedure, shortened: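 Purified PBP was preincubated with inhibitor (E. coli PBP3 1.5 μM, 30 min; P. aeruginosa PBP3 0.75 μM, A. baumannii PBP3 0.2 μM and PBP1a 1 μM, 15 min), then Bocillin-FL (0.1 μM; 0.05 μM for PBP1a) added and FP read up to 60 min. EC50 = 50% loss of bound probe.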

[2] = system: P. aeruginosa ATCC 27853; test: microbe, parasite or virus in culture; assay type: cell-based; conditions: Pseudomonas aeruginosa, ATCC27853, read-out: Minimum inhibitory concentration, P. aeruginosa ATCC 27853
[3] = system: A. baumannii ATCC 19606; test: microbe, parasite or virus in culture; assay type: cell-based; conditions: Acinetobacter baumannii, ATCC19606, read-out: MIC, A. baumannii ATCC 19606
[4] = system: P. aeruginosa ATCC 35151; test: microbe, parasite or virus in culture; assay type: cell-based; conditions: Pseudomonas aeruginosa, ATCC35151, read-out: Minimum inhibitory concentration, P. aeruginosa ATCC 35151
[5] = system: P. aeruginosa CDC-0054; test: microbe, parasite or virus in culture; assay type: cell-based; conditions: Pseudomonas aeruginosa, CDC0054, read-out: Minimum inhibitory concentration, P. aeruginosa CDC-0054
[6] = system: P. aeruginosa CDC-0090; test: microbe, parasite or virus in culture; assay type: cell-based; conditions: Pseudomonas aeruginosa, CDC0090, read-out: Minimum inhibitory concentration, P. aeruginosa CDC-0090
[7] = system: P. aeruginosa CDC-0095; test: microbe, parasite or virus in culture; assay type: cell-based; conditions: Pseudomonas aeruginosa, CDC0095, read-out: Minimum inhibitory concentration, P. aeruginosa CDC-0095
[8] = system: A. baumannii CDC-0033; test: microbe, parasite or virus in culture; assay type: cell-based; conditions: Acinetobacter baumannii, CDC0033, read-out: MIC, A. baumannii CDC-0033
[9] = system: A. baumannii CDC-0045; test: microbe, parasite or virus in culture; assay type: cell-based; conditions: Acinetobacter baumannii, CDC0045, read-out: MIC, A. baumannii CDC-0045
[10] = system: A. baumannii CDC-0083; test: microbe, parasite or virus in culture; assay type: cell-based; conditions: Acinetobacter baumannii, CDC0083, read-out: MIC, A. baumannii CDC-0083
[11] = system: B. thailandensis ATCC 700388; test: microbe, parasite or virus in culture; assay type: cell-based; conditions: Burkholderia thailandensis, ATCC700388, read-out: Minimum inhibitory concentration (MIC), B. thailandensis ATCC 700388
[12] = system: B. humptydooensis ATCC BAA-2767; test: microbe, parasite or virus in culture; assay type: cell-based; conditions: Burkholderia humptydooensis, ATCCBAA2767, read-out: Minimum inhibitory concentration (MIC), B. humptydooensis ATCC BAA-2767

T1 sequence (P0AD68 1-577): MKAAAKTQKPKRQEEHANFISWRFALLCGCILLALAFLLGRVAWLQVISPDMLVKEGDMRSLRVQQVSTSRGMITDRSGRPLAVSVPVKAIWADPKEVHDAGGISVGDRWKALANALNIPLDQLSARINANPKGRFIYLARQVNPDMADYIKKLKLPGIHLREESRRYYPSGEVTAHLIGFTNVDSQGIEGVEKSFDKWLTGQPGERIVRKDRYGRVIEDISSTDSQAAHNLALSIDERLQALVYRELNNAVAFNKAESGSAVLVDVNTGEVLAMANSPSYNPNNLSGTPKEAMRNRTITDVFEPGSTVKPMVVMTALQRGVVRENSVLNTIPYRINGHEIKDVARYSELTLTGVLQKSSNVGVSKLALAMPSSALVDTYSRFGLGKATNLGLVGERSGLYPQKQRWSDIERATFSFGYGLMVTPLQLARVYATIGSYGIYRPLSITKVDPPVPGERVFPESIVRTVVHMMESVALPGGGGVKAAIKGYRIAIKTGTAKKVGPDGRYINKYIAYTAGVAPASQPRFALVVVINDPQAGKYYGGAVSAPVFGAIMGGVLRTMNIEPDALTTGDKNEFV

Row | Structure (SMILES) | EC50 [1] | MIC [2] | MIC [3] | MIC [4] | MIC [5] | MIC [6] | MIC [7] | MIC [8] | MIC [9] | MIC [10] | MIC [11] | MIC [12]
1 | O=C(O)c1c(F)ccc2c1OB(O)[C@@H](NC(=O)C(NC(=O)N1CCN(Cc3ccc(O)c(O)c3Cl)C(=O)C1=O)c1cc(F)c(O)c(O)c1Cl)C2 (stereo partly drawn) [Example 292, (3R)-3-(2-(4-(2-chloro-3,4-dihydroxybenzyl)-2,3-dioxopiperazine-1-carboxamido)-2-(2-chloro-5-fluoro-3,4-dihydroxyphenyl)acetamido)-7-fluoro-2-hydroxy-3,4-dihydro-2H-benzo[e][1,2]oxaborinine-8-carboxylic acid] | < 10 µM | < 1 µg/mL | > 128 µg/mL | < 1 µg/mL | < 1 µg/mL | < 1 µg/mL | > 128 µg/mL | > 128 µg/mL | > 128 µg/mL | > 128 µg/mL | > 128 µg/mL | > 128 µg/mL
2 | O=C(O)c1c(F)ccc2c1OB(O)[C@@H](NC(=O)C(NC(=O)N1CCN(C3CCN(C(=O)c4cccc(O)c4)CC3)C(=O)C1=O)c1cc(F)c(O)c(O)c1Cl)C2 (stereo partly drawn) [Example 293, (3R)-3-(2-(2-chloro-5-fluoro-3,4-dihydroxyphenyl)-2-(4-(1-(3-hydroxybenzoyl)piperidin-4-yl)-2,3-dioxopiperazine-1-carboxamido)acetamido)-7-fluoro-2-hydroxy-3,4-dihydro-2H-benzo[e][1,2]oxaborinine-8-carboxylic acid] | < 10 µM | 2 to 4 µg/mL (≈ 2.54 to 5.09 µM) | < 1 µg/mL | < 1 µg/mL | < 1 µg/mL | 2 to 4 µg/mL (≈ 2.54 to 5.09 µM) | 2 to 4 µg/mL (≈ 2.54 to 5.09 µM) | 2 to 4 µg/mL (≈ 2.54 to 5.09 µM) | < 1 µg/mL | < 1 µg/mL | < 1 µg/mL | < 1 µg/mL
3 | O=C(NCCCN1CCN(C(=O)N[C@@H](C(=O)N[C@H]2Cc3ccc(F)c(C(=O)O)c3OB2O)c2cc(F)c(O)c(O)c2Cl)C(=O)C1=O)c1ccncc1 [Example 294, (R)-3-((R)-2-(2-chloro-5-fluoro-3,4-dihydroxyphenyl)-2-(4-(3-(isonicotinamido)propyl)-2,3-dioxopiperazine-1-carboxamido)acetamido)-7-fluoro-2-hydroxy-3,4-dihydro-2H-benzo[e][1,2]oxaborinine-8-carboxylic acid] | < 10 µM | < 1 µg/mL | < 1 µg/mL | < 1 µg/mL | < 1 µg/mL | < 1 µg/mL | < 1 µg/mL | 2 to 4 µg/mL (≈ 2.69 to 5.37 µM) | < 1 µg/mL | < 1 µg/mL | < 1 µg/mL | < 1 µg/mL
4 | O=C(NCCCN1CCN(C(=O)NC(C(=O)N[C@H]2Cc3ccc(F)c(C(=O)O)c3OB2O)c2cc(F)c(O)c(O)c2Cl)C(=O)C1=O)c1ccncc1Cl (stereo partly drawn) [Example 295, (3R)-3-(2-(2-chloro-5-fluoro-3,4-dihydroxyphenyl)-2-(4-(3-(3-chloroisonicotinamido)propyl)-2,3-dioxopiperazine-1-carboxamido)acetamido)-7-fluoro-2-hydroxy-3,4-dihydro-2H-benzo[e][1,2]oxaborinine-8-carboxylic acid] | < 10 µM | 2 to 4 µg/mL (≈ 2.57 to 5.13 µM) | < 1 µg/mL | < 1 µg/mL | 2 to 4 µg/mL (≈ 2.57 to 5.13 µM) | < 1 µg/mL | < 1 µg/mL | 2 to 4 µg/mL (≈ 2.57 to 5.13 µM) | < 1 µg/mL | < 1 µg/mL | 2 to 4 µg/mL (≈ 2.57 to 5.13 µM) | < 1 µg/mL
5 | O=C(NCCCN1CCN(C(=O)N[C@@H](C(=O)N[C@H]2Cc3ccc(F)c(C(=O)O)c3OB2O)c2cc(F)c(O)c(O)c2Cl)C(=O)C1=O)c1ccncc1O [Example 296, (R)-3-((R)-2-(2-chloro-5-fluoro-3,4-dihydroxyphenyl)-2-(4-(3-(3-hydroxyisonicotinamido)propyl)-2,3-dioxopiperazine-1-carboxamido)acetamido)-7-fluoro-2-hydroxy-3,4-dihydro-2H-benzo[e][1,2]oxaborinine-8-carboxylic acid] | < 10 µM | < 1 µg/mL | < 1 µg/mL | < 1 µg/mL | < 1 µg/mL | < 1 µg/mL | < 1 µg/mL | 2 to 4 µg/mL (≈ 2.63 to 5.26 µM) | < 1 µg/mL | < 1 µg/mL | 2 to 4 µg/mL (≈ 2.63 to 5.26 µM) | 2 to 4 µg/mL (≈ 2.63 to 5.26 µM)
6 | Cc1cnccc1C(=O)NCCCN1CCN(C(=O)NC(C(=O)N[C@H]2Cc3ccc(F)c(C(=O)O)c3OB2O)c2cc(F)c(O)c(O)c2Cl)C(=O)C1=O (stereo partly drawn) [Example 297, (3R)-3-(2-(2-chloro-5-fluoro-3,4-dihydroxyphenyl)-2-(4-(3-(3-methylisonicotinamido)propyl)-2,3-dioxopiperazine-1-carboxamido)acetamido)-7-fluoro-2-hydroxy-3,4-dihydro-2H-benzo[e][1,2]oxaborinine-8-carboxylic acid] | < 10 µM | < 1 µg/mL | < 1 µg/mL | < 1 µg/mL | 2 to 4 µg/mL (≈ 2.64 to 5.27 µM) | < 1 µg/mL | < 1 µg/mL | 2 to 4 µg/mL (≈ 2.64 to 5.27 µM) | < 1 µg/mL | < 1 µg/mL | 2 to 4 µg/mL (≈ 2.64 to 5.27 µM) | < 1 µg/mL
7 | Cc1cc(C(=O)NCCCN2CCN(C(=O)N[C@@H](C(=O)N[C@H]3Cc4ccc(F)c(C(=O)O)c4OB3O)c3cc(F)c(O)c(O)c3Cl)C(=O)C2=O)ccn1 [Example 298, (R)-3-((R)-2-(2-chloro-5-fluoro-3,4-dihydroxyphenyl)-2-(4-(3-(2-methylisonicotinamido)propyl)-2,3-dioxopiperazine-1-carboxamido)acetamido)-7-fluoro-2-hydroxy-3,4-dihydro-2H-benzo[e][1,2]oxaborinine-8-carboxylic acid] | < 10 µM | 2 to 4 µg/mL (≈ 2.64 to 5.27 µM) | < 1 µg/mL | < 1 µg/mL | < 1 µg/mL | < 1 µg/mL | < 1 µg/mL | 2 to 4 µg/mL (≈ 2.64 to 5.27 µM) | < 1 µg/mL | < 1 µg/mL | < 1 µg/mL | < 1 µg/mL
8 | O=C(NCCCN1CCN(C(=O)N[C@H](C(=O)N[C@H]2Cc3ccc(F)c(C(=O)O)c3OB2O)c2cc(F)c(O)c(O)c2Cl)C(=O)C1=O)c1ccnc(F)c1F [Example 299, (R)-3-((S)-2-(2-chloro-5-fluoro-3,4-dihydroxyphenyl)-2-(4-(3-(2,3-difluoroisonicotinamido)propyl)-2,3-dioxopiperazine-1-carboxamido)acetamido)-7-fluoro-2-hydroxy-3,4-dihydro-2H-benzo[e][1,2]oxaborinine-8-carboxylic acid] | > 250 µM | 8 to 16 µg/mL (≈ 10.2 to 20.5 µM) | 2 to 4 µg/mL (≈ 2.56 to 5.12 µM) | < 1 µg/mL | 2 to 4 µg/mL (≈ 2.56 to 5.12 µM) | 2 to 4 µg/mL (≈ 2.56 to 5.12 µM) | 2 to 4 µg/mL (≈ 2.56 to 5.12 µM) | 8 to 16 µg/mL (≈ 10.2 to 20.5 µM) | > 128 µg/mL | 2 to 4 µg/mL (≈ 2.56 to 5.12 µM) | > 128 µg/mL | > 128 µg/mL
9 | O=C(NCCCN1CCN(C(=O)N[C@@H](C(=O)N[C@H]2Cc3ccc(F)c(C(=O)O)c3OB2O)c2cc(F)c(O)c(O)c2Cl)C(=O)C1=O)c1ccnc(F)c1F [Example 300, (R)-3-((R)-2-(2-chloro-5-fluoro-3,4-dihydroxyphenyl)-2-(4-(3-(2,3-difluoroisonicotinamido)propyl)-2,3-dioxopiperazine-1-carboxamido)acetamido)-7-fluoro-2-hydroxy-3,4-dihydro-2H-benzo[e][1,2]oxaborinine-8-carboxylic acid] | < 10 µM | 2 to 4 µg/mL (≈ 2.56 to 5.12 µM) | < 1 µg/mL | < 1 µg/mL | < 1 µg/mL | < 1 µg/mL | 2 to 4 µg/mL (≈ 2.56 to 5.12 µM) | 2 to 4 µg/mL (≈ 2.56 to 5.12 µM) | < 1 µg/mL | < 1 µg/mL | 2 to 4 µg/mL (≈ 2.56 to 5.12 µM) | < 1 µg/mL
10 | Cc1cc(C(=O)NCCCN2CCN(C(=O)NC(C(=O)N[C@H]3Cc4ccc(F)c(C(=O)O)c4OB3O)c3cc(F)c(O)c(O)c3Cl)C(=O)C2=O)c(F)cn1 (stereo partly drawn) [Example 301, (3R)-3-(2-(2-chloro-5-fluoro-3,4-dihydroxyphenyl)-2-(4-(3-(5-fluoro-2-methylisonicotinamido)propyl)-2,3-dioxopiperazine-1-carboxamido)acetamido)-7-fluoro-2-hydroxy-3,4-dihydro-2H-benzo[e][1,2]oxaborinine-8-carboxylic acid] | < 10 µM | < 1 µg/mL | < 1 µg/mL | < 1 µg/mL | < 1 µg/mL | < 1 µg/mL | < 1 µg/mL | 2 to 4 µg/mL (≈ 2.57 to 5.15 µM) | < 1 µg/mL | < 1 µg/mL | 2 to 4 µg/mL (≈ 2.57 to 5.15 µM) | 2 to 4 µg/mL (≈ 2.57 to 5.15 µM)
